{"source": "paper PMC5618191", "about": "(Toxins, 2017)", "origin": "cited, not measured here", "parameters": "method as in PMID 26892719", "settings": "after three days of treatment; cited from earlier work"}
{"smiles": "CC(C)[C@H]1C(=O)O[C@H](C(C)C)C(=O)N(C)[C@@H](C(C)C)C(=O)O[C@H](C(C)C)C(=O)N(C)[C@@H](C(C)C)C(=O)O[C@H](C(C)C)C(=O)N1C", "note": "[ENN B, enniatin B]", "values": [{"measurement": "Metabolites in mice", "result": "three phase I metabolites"}]}
